The record followed here is ChEMBL document CHEMBL1201862, “PubChem BioAssay data set” (2004).

In assay [1] the target is Sphingosine 1-phosphate receptor 4 (Homo sapiens, UniProt O95977). In words: Fluorescence dose response cell-based high throughput screening assay for agonists of the Sphingosine 1-Phosphate Receptor 4 (S1P4). [Related pubchem assays: 1509 (Primary screen.), 1523 (Confirmation screen in triplicates.)]. It counts as functional.
The target of assay [2] is Sphingosine 1-phosphate receptor 1 (Homo sapiens, UniProt P21453). Nature of the assay: Fluorescence-based counterscreen assay for S1P4 agonists: Cell-based dose response high throughput screening assay to identify agonists of the Sphingosine 1-Phosphate Receptor 1 (S1P1). [Related pubchem assays (depositor defined):AID1509, AID1523, AID1801, AID463107, AID463118, AID463119, AID463122, AID463123, AID463129, AID463225, AID504400, AID504460]. The format is functional. Background: The purpose of a counterscreen is to sort out artefacts and off-target activity.
Chain of Sphingosine 1-phosphate receptor 1 (P21453 whole entry): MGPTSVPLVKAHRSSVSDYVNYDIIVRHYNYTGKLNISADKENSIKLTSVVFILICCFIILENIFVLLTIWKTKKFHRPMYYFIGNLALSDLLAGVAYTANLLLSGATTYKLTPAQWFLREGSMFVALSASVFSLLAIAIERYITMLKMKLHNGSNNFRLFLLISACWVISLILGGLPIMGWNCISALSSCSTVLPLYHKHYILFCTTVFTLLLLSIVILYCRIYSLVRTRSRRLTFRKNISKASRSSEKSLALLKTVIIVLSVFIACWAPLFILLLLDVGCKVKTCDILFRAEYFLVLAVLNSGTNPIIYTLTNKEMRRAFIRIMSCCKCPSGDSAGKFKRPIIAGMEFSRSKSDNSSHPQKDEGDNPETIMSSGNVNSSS

A short description of assay [3]: mammalian cell cytotoxicity, dose response, cytotoxicity control, plate reader, cherry-pick samples (AID 504397). The format is functional, cell-based.
Assay [4] is described as follows: HEp-2 cell cytotoxicity, dose response, cytotoxicity control for RSV inhibitor project, HTS (AID 2410). It counts as functional. To be noted: human respiratory syncytial virus.
A further assay concerns HeLa. Nature of the assay: HeLa cell cytotoxicity, dose response, cytotoxicity control for MITF activator project, CellTiter-Glo luminescence, cherry-pick samples (AID 540259). It counts as functional, cell-based. The following applies: Homo sapiens. In general terms: Cellular ATP, detected with luciferase, serves as a proxy for viable cell number.
Assay [5] deals with T1, Cannabinoid receptor 1 (Homo sapiens, UniProt P21554). In words: SAR analysis of agonists of the Cannabinoid Receptor 1 using an Image-Based Assay - Set 2. [Related pubchem assays (depositor defined):AID2013, AID2026]. It counts as functional.
T1 sequence (P21554 whole entry): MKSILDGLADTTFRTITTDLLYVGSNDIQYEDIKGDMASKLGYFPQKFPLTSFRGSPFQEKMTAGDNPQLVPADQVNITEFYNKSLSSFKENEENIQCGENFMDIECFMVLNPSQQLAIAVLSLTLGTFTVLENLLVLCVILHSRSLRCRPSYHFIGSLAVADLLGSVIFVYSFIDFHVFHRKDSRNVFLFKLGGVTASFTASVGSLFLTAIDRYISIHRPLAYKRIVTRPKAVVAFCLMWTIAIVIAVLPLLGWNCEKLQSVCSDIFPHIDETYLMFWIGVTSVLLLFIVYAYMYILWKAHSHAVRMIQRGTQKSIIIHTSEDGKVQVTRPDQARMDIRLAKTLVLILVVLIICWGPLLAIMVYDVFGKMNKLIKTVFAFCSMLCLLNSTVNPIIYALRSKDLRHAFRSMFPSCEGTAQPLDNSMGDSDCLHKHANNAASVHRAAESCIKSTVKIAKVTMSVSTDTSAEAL
The target in assay [6] is T2, G-protein coupled receptor 35 (Homo sapiens, UniProt Q9HC97). In words: SAR analysis of Antagonists of the GPR35 Receptor using an Image-Based Assay - Set 3. [Related pubchem assays (depositor defined):AID2013, AID2026]. It counts as functional.
T2 sequence (Q9HC97 whole entry): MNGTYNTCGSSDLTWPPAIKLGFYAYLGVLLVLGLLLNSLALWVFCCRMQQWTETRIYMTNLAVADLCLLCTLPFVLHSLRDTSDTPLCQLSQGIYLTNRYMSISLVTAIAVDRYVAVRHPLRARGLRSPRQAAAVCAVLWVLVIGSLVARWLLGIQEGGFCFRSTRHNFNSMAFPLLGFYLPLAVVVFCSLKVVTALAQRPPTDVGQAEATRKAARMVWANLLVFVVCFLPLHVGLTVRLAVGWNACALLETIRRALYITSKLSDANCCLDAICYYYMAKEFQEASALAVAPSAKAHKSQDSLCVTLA
Assay [7] concerns the target T3, G-protein coupled receptor 55 (Homo sapiens, UniProt Q9Y2T6). Nature of the assay: GPR55 antagonist potency of analogs, SAR follow-up, imaging, U2OS, beta-arrestin-GFP, LPI agonist, set 2 (AID 2820). The format is functional.
Assay [8] deals with T1, Cannabinoid receptor 1. Nature of the assay: SAR analysis of antagonists of the Cannabinoid Receptor 1 using an Image-Based Assay - Set 2. [Related pubchem assays (depositor defined):AID2013, AID2026]. It counts as functional.
Assay [9] has as its target T2, G-protein coupled receptor 35. In words: SAR analysis of Agonists of the GPR35 Receptor using an Image-Based Assay - Set 2. [Related pubchem assays (depositor defined):AID2013, AID2026]. The format is functional.
Assay [10] concerns the target T3, G-protein coupled receptor 55. In words: GPR55 antagonists blocking LPI-driven arrestin recruitment, primary screen, imaging, U2OS, beta-arrestin-GFP, LPI agonist (AID 2013).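 Further: antagonist potency measured as reduced agonist-driven arrestin aggregation.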 It counts as functional. In general terms: Activated receptors often draw arrestin, which recruitment assays turn into a signal.
The target in assay [11] is T4, Cannabinoid receptor 2 (Homo sapiens, UniProt P34972). In words: SAR analysis of antagonists of the Cannabinoid Receptor 2 using an Image-Based Assay. [Related pubchem assays (depositor defined):AID2013, AID2026]. The format is functional.
T4 sequence (P34972 whole entry): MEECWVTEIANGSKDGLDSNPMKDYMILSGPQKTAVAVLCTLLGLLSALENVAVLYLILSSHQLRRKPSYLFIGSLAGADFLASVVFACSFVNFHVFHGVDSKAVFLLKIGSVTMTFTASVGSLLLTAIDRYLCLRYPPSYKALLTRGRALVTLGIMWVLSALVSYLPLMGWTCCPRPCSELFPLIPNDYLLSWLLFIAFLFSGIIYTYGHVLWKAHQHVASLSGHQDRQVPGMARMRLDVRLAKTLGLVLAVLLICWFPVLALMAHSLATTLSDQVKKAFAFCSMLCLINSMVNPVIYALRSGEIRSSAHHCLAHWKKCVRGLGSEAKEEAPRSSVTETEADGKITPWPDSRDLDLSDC
The target of assay [12] is T4, Cannabinoid receptor 2. Nature of the assay: SAR analysis of agonists of the Cannabinoid Receptor 2 using an Image-Based Assay. [Related pubchem assays (depositor defined):AID2013, AID2026]. The format is functional.
The target in assay [13] is Kappa-type opioid receptor (Homo sapiens, UniProt P41145). Nature of the assay: SAR analysis of small molecule agonists of the kappa opioid receptor via a luminescent beta-arrestin assay - Set 3. [Related pubchem assays (depositor defined):AID1777, AID1785, AID1786, AID1966, AID2133, AID2136, AID2284, AID2500]. The format is functional.
Chain of Kappa-type opioid receptor (P41145 whole entry): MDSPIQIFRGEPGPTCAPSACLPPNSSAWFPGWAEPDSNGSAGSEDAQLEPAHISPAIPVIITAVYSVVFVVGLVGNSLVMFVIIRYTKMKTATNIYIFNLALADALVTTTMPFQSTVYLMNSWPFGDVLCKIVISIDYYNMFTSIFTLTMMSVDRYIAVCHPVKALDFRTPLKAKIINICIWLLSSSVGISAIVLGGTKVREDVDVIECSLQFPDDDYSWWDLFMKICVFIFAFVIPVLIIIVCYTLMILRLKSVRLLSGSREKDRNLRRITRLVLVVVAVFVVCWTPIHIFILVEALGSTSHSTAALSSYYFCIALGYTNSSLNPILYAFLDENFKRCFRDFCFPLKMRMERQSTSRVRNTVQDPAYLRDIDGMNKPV
In assay [14] the target is T5, Tyrosine-protein phosphatase non-receptor type 7 (Homo sapiens, UniProt P35236).
T5 sequence (P35236 whole entry): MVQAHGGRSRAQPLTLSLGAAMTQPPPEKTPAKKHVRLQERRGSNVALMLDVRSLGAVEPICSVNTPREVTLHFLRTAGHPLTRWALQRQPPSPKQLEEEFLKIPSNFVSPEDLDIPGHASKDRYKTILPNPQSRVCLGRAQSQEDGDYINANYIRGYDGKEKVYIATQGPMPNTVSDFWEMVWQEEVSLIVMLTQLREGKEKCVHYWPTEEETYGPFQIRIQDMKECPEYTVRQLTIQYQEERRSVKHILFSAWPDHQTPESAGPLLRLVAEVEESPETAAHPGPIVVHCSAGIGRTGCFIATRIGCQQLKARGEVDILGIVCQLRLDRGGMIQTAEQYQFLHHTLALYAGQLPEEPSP
It counts as functional.

Assay [15] addresses T6, Tyrosine-protein phosphatase non-receptor type 22 (Homo sapiens, UniProt Q9Y2R2).
T6 sequence (Q9Y2R2 whole entry): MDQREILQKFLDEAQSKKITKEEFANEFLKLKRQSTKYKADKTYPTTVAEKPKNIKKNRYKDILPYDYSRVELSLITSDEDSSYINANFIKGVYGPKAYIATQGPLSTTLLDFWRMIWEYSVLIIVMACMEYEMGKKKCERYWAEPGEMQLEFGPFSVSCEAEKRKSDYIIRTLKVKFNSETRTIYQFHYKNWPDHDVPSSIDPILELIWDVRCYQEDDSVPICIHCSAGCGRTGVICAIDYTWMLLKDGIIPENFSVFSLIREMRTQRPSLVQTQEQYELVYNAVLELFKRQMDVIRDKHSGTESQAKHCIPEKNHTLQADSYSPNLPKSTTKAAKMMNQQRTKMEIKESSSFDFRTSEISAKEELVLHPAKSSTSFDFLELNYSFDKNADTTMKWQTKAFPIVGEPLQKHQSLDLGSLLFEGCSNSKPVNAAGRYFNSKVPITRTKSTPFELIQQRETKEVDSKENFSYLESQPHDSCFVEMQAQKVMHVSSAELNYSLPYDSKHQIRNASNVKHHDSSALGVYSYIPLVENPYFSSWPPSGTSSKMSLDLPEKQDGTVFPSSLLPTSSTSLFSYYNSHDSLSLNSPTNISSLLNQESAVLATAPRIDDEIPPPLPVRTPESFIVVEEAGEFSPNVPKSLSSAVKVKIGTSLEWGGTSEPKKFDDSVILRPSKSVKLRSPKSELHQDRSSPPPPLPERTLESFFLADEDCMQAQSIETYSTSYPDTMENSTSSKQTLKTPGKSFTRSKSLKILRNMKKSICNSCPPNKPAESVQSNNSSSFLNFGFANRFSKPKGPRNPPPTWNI
Nature of the assay: LYP1 Fluorescent Assay using OMFP substrate for In Vitro dose response studies. [Related pubchem assays (depositor defined):AID1779, AID1784, AID435024].

The target of assay [16] is T6, Tyrosine-protein phosphatase non-receptor type 22. In words: inhibitors of LYP phosphatase, biochemical, fluorescence intensity, uHTS (AID 1779).
The target is the same in assay [17]. The format is functional.
Assay [18] has as its target T5, Tyrosine-protein phosphatase non-receptor type 7. Nature of the assay: HTS HePTP Fluorescent Assay using OMFP substrate for In Vitro dose response studies. [Related pubchem assays (depositor defined):AID1059, AID1077, AID1784, AID2068, AID2085, AID435032, AID521]. It counts as functional.
In assay [19] the target is T6, Tyrosine-protein phosphatase non-receptor type 22. The format is functional. The source holds these as a separate data set.

The source made the active and inactive calls.

T3 sequence (Q9Y2T6 whole entry): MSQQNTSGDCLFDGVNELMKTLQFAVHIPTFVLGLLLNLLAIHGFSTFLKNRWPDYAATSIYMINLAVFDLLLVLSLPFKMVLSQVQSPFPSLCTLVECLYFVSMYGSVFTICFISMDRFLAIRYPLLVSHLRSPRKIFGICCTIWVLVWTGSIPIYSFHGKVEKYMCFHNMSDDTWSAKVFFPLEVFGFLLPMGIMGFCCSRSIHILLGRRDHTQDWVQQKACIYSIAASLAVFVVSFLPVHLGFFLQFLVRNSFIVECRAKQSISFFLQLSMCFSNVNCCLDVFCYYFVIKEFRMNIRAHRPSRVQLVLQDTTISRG
Chain of Sphingosine 1-phosphate receptor 4 (O95977 whole entry): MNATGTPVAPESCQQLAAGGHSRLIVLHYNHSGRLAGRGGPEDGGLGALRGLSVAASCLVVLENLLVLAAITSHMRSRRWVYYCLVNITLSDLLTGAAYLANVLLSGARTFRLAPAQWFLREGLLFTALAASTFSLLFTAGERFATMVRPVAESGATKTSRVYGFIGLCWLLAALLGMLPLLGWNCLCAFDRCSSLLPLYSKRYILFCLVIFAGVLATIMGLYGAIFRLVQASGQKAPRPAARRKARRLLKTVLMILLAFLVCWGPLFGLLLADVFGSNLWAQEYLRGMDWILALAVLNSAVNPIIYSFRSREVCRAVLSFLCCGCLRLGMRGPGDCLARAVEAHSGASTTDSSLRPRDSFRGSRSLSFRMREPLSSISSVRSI

Take `Cn1c(-c2cc3ccc(OC(=O)C(C)(C)C)cc3oc2=O)nc2ccccc21`: the figures for the EC50 in assay [1] and in [2] were 37 µM (not active) and 33.5 µM (inactive), respectively.

As to `COc1cccc2sc3ccc(C#CC4(O)CCCCC4)cc3c(=O)c12`, the AC50 (as a rule, the concentration at which the activity in the assay is half-maximal) in [3] is 85.7 µM (active); with HeLa, 39.6 µM (active). Further, in [4], the CC50 (as a rule, the concentration that lowers cell viability or growth by half) was 13.9 µM (active).

Regarding `COC(=O)C1=C(N)c2ccccc2C1(C#N)c1ccccc1` (stereo not given), the EC50 (on Cannabinoid receptor 1 [5]; in assay [9]; on Cannabinoid receptor 2 [12]) was > 32 µM (inactive) throughout. The IC50 (as a rule, the concentration needed to halve the response being measured) in assay [6] is > 32 µM (inactive); in assay [7], 2.36 µM (active); at Cannabinoid receptor 1 [8], > 32 µM (inactive); in assay [10], 1.76 µM (active); on Cannabinoid receptor 2 [11] it was > 32 µM (inactive).

As for `FC(F)(F)c1cc(CSc2nnc(-c3ccc(Br)cc3)n2Cc2ccco2)ccc1Cl`, the EC50 – broadly, the concentration at which the effect is half-maximal – in [13] is 11 µM (inactive).

With `O=C(N/N=C/c1ccc2c(c1)OCO2)c1cc(-c2ccncc2)nc2ccccc12`, the IC50 in [14] was > 79.4 µM (inactive); in assay [15], > 99 µM (inactive); in [16], > 99 µM (inactive); in [17], > 79.4 µM (inactive); in assay [18] it was > 99 µM (inactive); in [19], > 79.4 µM (inactive).
